Assay results published in ChEMBL document CHEMBL1201862, “PubChem BioAssay data set” (2004).
Calls of active or inactive are those of the source.

Columns and labels:
[1] = target: T1, Tyrosine-protein phosphatase non-receptor type 22 (Homo sapiens, UniProt Q9Y2R2); assay: LYP (PTPN22) phosphatase inhibitor potency, SAR follow-up, biochemical, pCAP fluorogenic substrate, fluorescence, set 3 (AID 449727); assay type: functional
T1 sequence (Q9Y2R2 whole entry): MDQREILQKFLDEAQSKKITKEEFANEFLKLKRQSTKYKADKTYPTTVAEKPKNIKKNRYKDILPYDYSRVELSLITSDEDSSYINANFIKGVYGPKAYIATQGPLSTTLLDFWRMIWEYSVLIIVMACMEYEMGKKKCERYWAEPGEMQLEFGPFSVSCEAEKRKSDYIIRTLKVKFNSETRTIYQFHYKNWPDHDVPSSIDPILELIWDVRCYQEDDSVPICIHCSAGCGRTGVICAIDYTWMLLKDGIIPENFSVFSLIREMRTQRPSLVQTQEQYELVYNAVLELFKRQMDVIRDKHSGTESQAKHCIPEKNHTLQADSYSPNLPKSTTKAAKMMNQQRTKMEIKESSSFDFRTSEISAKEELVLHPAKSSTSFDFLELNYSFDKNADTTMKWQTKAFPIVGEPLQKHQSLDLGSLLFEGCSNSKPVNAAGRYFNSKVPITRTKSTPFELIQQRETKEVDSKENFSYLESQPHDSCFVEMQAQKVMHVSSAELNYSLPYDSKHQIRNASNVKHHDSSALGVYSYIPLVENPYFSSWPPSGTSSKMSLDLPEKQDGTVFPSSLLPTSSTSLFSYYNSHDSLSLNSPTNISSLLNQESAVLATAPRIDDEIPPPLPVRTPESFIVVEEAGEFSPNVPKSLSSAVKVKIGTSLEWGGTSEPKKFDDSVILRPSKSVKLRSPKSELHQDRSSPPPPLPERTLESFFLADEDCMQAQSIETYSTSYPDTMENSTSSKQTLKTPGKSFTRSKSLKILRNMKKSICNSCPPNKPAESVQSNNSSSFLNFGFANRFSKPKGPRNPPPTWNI

[2] = target: T2, Dual specificity protein phosphatase 3 (Homo sapiens, UniProt P51452); assay: VHR1 phosphatase inhibitors, primary screen, biochemical, absorbance, uHTS (AID 1654)
[3] = target: T3, Tyrosine-protein phosphatase non-receptor type 7 (Homo sapiens, UniProt P35236); assay: HePTP (PTPN7) phosphatase inhibitor potency, SAR follow-up, biochemical, set 2 (AID 449736); assay type: functional
T3 sequence (P35236 whole entry): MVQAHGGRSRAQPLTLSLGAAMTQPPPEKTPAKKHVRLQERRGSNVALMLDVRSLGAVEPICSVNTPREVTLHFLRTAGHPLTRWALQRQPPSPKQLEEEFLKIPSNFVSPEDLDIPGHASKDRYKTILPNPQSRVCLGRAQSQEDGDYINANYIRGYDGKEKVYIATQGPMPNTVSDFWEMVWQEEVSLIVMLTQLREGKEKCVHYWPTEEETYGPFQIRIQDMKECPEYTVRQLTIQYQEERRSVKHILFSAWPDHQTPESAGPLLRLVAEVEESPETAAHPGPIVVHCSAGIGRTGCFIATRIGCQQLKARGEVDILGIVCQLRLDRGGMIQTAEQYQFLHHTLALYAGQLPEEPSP

[4] = target: Dual specificity protein phosphatase 6 (Rattus norvegicus, UniProt Q64346); assay: MKP-3 phosphatase inhibitors, primary screen, biochemical, rat enzyme, in vitro (AID 425)
[5] = target: T2, Dual specificity protein phosphatase 3; assay: VHR1 phosphatase inhibitors, biochemical (AID 1878)
[6] = target: Glyceraldehyde-3-phosphate dehydrogenase (Homo sapiens, UniProt P04406)
[7] = target: Tyrosine-protein phosphatase non-receptor type 12 (Homo sapiens, UniProt Q05209); assay: SAR Selectivity Analysis of small molecule inhibitors of PEST using pCAP in a fluorescence assay. [Related pubchem assays (depositor defined):AID1779, AID1784, AID2135]; assay type: functional
NS3 = NS3 (Hepatitis C virus, UniProt A3EZJ3); assay: PubChem AID 2173; design: species or system Hepacivirus hominis
[8] = target: T1, Tyrosine-protein phosphatase non-receptor type 22; assay: SAR LYP1 Fluorescent Assay using OMFP substrate for In Vitro dose response studies - Set 3. [Related pubchem assays (depositor defined):AID1779, AID1784, AID2140, AID2686]; assay type: functional
[9] = target: T4, Voltage-gated N-type calcium channel alpha-1B subunit/Amyloid beta A4 precursor protein-binding family A member 1 (Homo sapiens, UniProt Q00975+Q02410); assay type: protein assay
[10] = target: T4, Voltage-gated N-type calcium channel alpha-1B subunit/Amyloid beta A4 precursor protein-binding family A member 1; assay type: protein assay; remark: listed apart in the source
[11] = target: Lysine-specific demethylase 4A (Homo sapiens, UniProt O75164); assay: JMJD2A histone demethylase inhibitors, dose response, selectivity assay for GASC-1 inhibitor project, biochemical, DELFIA europium, cherry-picked samples (AID 488840)
[12] = target: Lysine-specific demethylase 4C (Homo sapiens, UniProt Q9H3R0); assay: GASC-1 (JMJD2C) histone demethylase inhibitors, dose response, biochemical, DELFIA europium, cherry-picked samples (AID 488835); assay type: functional
[13] = AlphaScreen signal interference compounds, dose response, artefact control for ARNT-TACC3 interaction inhibitor project, biochemical, luminescence, cherry-pick (AID 651705); assay type: functional;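 note: AlphaScreen bead proximity signal that flags compounds interfering with the detection technology; potency reflects signal decrease which marks the compound as an assay artifact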
[14] = target: Female germline-specific tumor suppressor gld-1 (Caenorhabditis elegans, UniProt Q17339); assay: inhibitors of GLD-1 binding to TGE RNA, dose response, biochemical, fluorescence polarization, C. elegans (AID 2802);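 note: fluorescence polarization of labeled TGE RNA bound by purified gld-1 protein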
[15] = target: UDP-galactopyranose mutase (Mycobacterium tuberculosis, UniProt P9WIQ1); assay: Inhibitors of Mycobacterium tuberculosis UDP-galactopyranose mutase (UGM) enzyme Measured in Biochemical System Using Plate Reader - 2105-02_Inhibitor_Dose_CherryPick_Activity. [Related pubchem assays (depositor defined):AID504439]
ORF 73 = ORF 73 (Human herpesvirus 8, UniProt O40947); assay: inhibitors of C-LANA binding to LBS DNA, dose response, biochemical, fluorescence polarization, cherry-picked samples (AID 504725); design: species or system Human gammaherpesvirus 8;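 note: fluorescence polarization of a labeled DNA duplex reporting LANA DNA binding; potency is for inhibitors that block LANA binding to the DNA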
Keap1/Nrf2 = Keap1/Nrf2 (Homo sapiens, UniProt Q14145); assay: Keap1-Nrf2 protein-protein interaction inhibitors, dose response, biochemical, fluorescence polarization, cherry-picked samples (AID 588683)
Protein Rev = Protein Rev (Human immunodeficiency virus type 1 group M subtype B (isolate HXB2)(HIV-1), UniProt P04618); assay: inhibitors of Rev binding to RRE RNA, dose response, biochemical, fluorescence polarization, HIV-1 (AID 434976); design: species or system Human immunodeficiency virus 1
[16] = target: Intestinal-type alkaline phosphatase (Mus musculus, UniProt P24822); assay: PubChem AID 488875; assay type: functional
[17] = target: T5, Intestinal-type alkaline phosphatase (Homo sapiens, UniProt P09923); assay: Dose Response confirmation of uHTS hits from a small molecule inhibitors of human intestinal alkaline phosphatase via a luminescent assay. [Related pubchem assays (depositor defined):AID2544, AID2574]; assay type: functional
[18] = target: T5, Intestinal-type alkaline phosphatase; assay: human IAP inhibitors, dose response, biochemical, luminescent, uHTS hits, set 2 (AID 488793); assay type: functional
[19] = target: T6, Alkaline phosphatase, tissue-nonspecific isozyme (Homo sapiens, UniProt P05186); assay: inhibition of tissue-nonspecific alkaline phosphatase – biochemical, dose response (AID 488882); assay type: functional
T6 sequence (P05186 whole entry): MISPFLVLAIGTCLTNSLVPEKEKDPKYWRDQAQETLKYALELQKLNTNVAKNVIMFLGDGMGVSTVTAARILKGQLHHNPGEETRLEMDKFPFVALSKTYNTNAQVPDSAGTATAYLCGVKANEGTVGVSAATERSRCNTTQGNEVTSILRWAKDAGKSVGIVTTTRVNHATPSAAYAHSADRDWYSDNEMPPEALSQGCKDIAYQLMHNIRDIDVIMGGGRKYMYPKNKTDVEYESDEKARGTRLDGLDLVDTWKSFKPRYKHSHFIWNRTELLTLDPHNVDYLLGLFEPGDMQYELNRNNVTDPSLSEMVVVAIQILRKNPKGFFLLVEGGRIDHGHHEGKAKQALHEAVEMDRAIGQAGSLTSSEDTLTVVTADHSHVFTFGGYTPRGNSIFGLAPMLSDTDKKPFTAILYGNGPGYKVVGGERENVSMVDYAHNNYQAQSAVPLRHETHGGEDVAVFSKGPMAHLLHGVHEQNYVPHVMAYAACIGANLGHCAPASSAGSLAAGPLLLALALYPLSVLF

CAAX prenyl protease 1 = CAAX prenyl protease 1 (Saccharomyces cerevisiae S288c, UniProt P47154); assay: Ste24 protease inhibitors, dose response, biochemical, S. cerevisiae, plate reader, cherry-pick (AID 488815)

T2 sequence (P51452 whole entry): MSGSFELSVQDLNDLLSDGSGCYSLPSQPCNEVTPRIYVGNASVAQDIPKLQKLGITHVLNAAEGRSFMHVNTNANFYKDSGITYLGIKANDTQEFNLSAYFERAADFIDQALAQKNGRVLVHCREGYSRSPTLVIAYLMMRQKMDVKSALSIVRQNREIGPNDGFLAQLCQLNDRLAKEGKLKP
T4 sequence (Q00975 whole entry): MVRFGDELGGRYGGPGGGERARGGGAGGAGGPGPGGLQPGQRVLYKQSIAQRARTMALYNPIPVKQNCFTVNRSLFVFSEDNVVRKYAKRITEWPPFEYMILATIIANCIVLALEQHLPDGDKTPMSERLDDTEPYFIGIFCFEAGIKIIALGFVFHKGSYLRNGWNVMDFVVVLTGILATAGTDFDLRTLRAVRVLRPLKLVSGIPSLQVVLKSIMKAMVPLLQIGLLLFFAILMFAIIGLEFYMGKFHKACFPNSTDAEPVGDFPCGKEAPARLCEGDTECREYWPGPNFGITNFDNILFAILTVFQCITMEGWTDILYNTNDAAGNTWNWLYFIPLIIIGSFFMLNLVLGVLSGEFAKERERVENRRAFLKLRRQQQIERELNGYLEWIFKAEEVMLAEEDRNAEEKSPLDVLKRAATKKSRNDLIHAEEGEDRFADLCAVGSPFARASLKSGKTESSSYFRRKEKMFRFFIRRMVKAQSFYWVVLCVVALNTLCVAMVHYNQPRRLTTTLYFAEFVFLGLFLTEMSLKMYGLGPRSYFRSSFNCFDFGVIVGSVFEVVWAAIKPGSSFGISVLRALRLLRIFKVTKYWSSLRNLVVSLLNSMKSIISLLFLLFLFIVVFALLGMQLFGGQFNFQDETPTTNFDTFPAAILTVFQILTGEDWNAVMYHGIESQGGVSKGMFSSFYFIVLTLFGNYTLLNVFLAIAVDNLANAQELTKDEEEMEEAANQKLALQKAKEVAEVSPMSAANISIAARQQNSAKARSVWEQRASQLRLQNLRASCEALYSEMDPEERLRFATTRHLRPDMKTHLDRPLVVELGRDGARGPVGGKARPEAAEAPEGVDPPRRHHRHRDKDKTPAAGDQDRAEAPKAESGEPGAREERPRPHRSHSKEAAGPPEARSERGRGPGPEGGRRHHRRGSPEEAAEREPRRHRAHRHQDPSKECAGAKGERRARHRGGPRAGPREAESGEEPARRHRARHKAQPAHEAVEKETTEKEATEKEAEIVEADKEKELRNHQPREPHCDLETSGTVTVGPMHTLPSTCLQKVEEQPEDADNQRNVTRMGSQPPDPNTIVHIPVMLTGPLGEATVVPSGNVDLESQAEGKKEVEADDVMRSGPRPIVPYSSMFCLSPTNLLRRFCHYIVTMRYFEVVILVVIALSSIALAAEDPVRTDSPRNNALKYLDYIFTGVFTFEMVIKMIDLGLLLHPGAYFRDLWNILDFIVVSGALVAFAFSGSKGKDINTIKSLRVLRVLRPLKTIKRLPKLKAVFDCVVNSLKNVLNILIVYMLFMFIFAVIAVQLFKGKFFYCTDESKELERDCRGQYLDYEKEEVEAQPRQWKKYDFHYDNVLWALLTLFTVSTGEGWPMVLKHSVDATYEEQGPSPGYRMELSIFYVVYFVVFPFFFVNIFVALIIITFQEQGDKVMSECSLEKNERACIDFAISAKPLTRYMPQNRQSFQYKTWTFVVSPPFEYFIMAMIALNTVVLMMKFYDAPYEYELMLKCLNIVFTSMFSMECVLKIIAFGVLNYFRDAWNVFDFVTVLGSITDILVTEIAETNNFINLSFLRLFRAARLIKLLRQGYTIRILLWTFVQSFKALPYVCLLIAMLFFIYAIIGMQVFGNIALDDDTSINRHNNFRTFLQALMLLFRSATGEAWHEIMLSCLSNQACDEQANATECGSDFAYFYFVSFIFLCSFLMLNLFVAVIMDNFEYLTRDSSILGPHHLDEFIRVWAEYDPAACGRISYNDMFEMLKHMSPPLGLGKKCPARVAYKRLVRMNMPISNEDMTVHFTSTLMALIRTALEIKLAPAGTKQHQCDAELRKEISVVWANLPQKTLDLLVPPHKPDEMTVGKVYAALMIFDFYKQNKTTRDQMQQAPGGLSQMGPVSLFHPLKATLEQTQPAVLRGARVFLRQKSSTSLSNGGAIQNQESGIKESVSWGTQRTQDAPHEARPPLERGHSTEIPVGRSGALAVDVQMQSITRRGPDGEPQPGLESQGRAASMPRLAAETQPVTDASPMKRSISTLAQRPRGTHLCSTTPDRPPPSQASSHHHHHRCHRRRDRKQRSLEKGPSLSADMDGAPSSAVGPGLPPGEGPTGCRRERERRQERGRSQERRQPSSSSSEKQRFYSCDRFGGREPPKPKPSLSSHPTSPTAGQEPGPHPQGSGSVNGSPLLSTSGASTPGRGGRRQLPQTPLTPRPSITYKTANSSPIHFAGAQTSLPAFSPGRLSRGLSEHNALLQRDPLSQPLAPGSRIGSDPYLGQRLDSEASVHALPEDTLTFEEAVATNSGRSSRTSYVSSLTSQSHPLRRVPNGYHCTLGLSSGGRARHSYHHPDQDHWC
T4 sequence (Q02410 whole entry): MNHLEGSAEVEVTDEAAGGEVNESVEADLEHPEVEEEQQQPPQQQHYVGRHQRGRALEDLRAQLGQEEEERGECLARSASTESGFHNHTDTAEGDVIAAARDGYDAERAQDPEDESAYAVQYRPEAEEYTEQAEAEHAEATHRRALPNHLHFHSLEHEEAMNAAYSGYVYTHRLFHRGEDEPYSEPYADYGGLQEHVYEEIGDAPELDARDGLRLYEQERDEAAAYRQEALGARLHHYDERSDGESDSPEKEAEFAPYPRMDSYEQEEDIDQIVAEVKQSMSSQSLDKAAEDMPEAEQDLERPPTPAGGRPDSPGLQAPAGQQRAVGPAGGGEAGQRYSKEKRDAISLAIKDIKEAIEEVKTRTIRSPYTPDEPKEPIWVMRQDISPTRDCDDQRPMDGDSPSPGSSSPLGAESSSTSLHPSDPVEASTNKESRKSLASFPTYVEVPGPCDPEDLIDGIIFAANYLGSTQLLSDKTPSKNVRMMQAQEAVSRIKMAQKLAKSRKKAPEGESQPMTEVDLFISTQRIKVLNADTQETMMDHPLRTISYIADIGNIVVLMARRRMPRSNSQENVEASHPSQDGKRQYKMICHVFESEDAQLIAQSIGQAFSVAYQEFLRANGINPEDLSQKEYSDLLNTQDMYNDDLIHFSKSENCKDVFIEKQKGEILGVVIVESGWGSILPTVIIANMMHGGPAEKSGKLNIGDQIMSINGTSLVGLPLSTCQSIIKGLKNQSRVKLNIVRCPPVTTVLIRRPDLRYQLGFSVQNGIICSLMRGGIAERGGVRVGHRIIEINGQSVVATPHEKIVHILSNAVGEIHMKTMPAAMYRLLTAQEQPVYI
T5 sequence (P09923 whole entry): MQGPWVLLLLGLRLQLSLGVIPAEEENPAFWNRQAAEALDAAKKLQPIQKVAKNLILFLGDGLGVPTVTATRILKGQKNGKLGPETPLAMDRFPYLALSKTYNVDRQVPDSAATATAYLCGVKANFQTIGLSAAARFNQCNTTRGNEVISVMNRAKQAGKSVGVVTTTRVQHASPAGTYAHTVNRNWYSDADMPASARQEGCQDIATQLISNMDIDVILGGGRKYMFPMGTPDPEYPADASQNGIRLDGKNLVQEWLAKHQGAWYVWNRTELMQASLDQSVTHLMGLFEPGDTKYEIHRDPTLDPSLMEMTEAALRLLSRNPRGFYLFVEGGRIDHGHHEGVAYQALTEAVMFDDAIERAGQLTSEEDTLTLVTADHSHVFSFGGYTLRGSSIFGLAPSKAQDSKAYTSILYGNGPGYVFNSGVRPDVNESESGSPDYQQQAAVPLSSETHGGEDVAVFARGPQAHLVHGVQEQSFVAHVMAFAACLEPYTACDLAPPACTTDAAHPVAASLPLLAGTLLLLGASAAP
Sequence of Intestinal-type alkaline phosphatase (Mus musculus, UniProt P24822) (P24822 whole entry): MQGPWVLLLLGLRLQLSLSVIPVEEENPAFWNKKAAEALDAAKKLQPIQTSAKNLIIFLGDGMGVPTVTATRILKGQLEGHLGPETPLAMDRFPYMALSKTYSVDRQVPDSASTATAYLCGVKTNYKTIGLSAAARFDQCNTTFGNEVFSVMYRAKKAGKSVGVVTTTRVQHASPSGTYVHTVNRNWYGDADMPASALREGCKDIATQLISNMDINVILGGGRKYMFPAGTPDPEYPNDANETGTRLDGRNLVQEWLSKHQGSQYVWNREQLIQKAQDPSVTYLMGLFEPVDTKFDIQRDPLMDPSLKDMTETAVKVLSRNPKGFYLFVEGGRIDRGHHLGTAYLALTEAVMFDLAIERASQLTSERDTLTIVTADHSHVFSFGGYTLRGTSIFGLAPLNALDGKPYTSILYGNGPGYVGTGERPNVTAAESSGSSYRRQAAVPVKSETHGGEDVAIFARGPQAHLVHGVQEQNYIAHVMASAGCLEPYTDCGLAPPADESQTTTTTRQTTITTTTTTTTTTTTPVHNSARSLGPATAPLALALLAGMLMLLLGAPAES
Sequence of Protein Rev (P04618 whole entry): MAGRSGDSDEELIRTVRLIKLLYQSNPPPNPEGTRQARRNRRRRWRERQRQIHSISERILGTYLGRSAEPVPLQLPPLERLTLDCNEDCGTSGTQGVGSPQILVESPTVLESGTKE
Sequence of UDP-galactopyranose mutase (P9WIQ1 whole entry): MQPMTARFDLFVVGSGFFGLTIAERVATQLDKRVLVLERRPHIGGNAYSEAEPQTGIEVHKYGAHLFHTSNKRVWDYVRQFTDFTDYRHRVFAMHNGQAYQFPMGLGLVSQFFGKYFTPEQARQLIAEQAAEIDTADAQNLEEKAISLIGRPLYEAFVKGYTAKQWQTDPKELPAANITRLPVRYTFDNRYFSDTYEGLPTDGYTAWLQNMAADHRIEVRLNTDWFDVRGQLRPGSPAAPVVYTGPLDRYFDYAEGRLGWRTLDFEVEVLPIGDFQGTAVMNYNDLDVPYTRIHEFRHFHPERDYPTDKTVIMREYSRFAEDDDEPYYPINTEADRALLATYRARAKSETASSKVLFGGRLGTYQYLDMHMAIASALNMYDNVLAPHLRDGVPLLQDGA

Q: For `O=C(O)CCN1C(=O)/C(=C2\C(=O)N(Cc3ccccc3Cl)c3ccccc32)SC1=S`, which IC50 [1] is on record?
A: 1.91 µM (active)

Q: What about the IC50 [2] of the same compound?
A: 3.2 µM (active)

Q: What about the IC50 [3] of the same compound?
A: 0.549 µM (active)

Q: And the IC50 [4]?
A: 30.9 µM (active)

Q: And the IC50 [5]?
A: < 1.23 µM (inactive)

Q: And the IC50 [6]?
A: > 100 µM (not active)

Q: What about the IC50 [7] of the same compound?
A: 2.03 µM (active)

Q: What about the IC50 (NS3) of the same compound?
A: 3.06 µM (active)

Q: What about the IC50 [8] of the same compound?
A: 2.88 µM (active)

Q: And the IC50 [9]?
A: 9.81 µM (active)

Q: And the IC50 [10]?
A: > 50 µM (inactive)

Q: Which results are given for `O=C(Nc1nnc(-c2ccco2)o1)c1ccc(N2C(=O)CCC2=O)cc1`?
A: AC50 [11]: 13.9 µM (active); AC50 [12]: 14.7 µM (active); AC50 [13]: 126 µM (active)

Q: Which results are given for `Nc1ccc2nonc2c1[N+](=O)[O-]`?
A: IC50 [14]: 0.248 µM (active); AC50 [15]: 7.95 µM (active); AC50 (ORF 73): 8.03 µM (active); AC50 (Keap1/Nrf2): 7.99 µM (active); IC50 (Protein Rev): 0.69 µM (active)

Q: Which EC50 [16] does the source give for `O=C(O)c1ccccc1C(=O)Nc1cc(-c2ccccc2)n[nH]1` here?
A: > 100 µM (inactive)

Q: And the IC50 [17]?
A: 10.5 µM (inactive)

Q: What about the IC50 [18] of the same compound?
A: 58.5 µM (active)

Q: What about the IC50 [19] of the same compound?
A: 32.7 µM (active)

Q: Which AC50 (CAAX prenyl protease 1) does the source give for `CCOC(=O)c1cc(C)nc(O)c1C#N` here?
A: 12.3 µM (active)
